Test results published in paper PMC7979807, “A 37-amino acid loop in the Yarrowia lipolytica hexokinase impacts its activity and affinity and modulates gene expression” (Scientific Reports, 2021).

Columns and labels:
Experiment in all cases: Hexokinase Colorimetric Assay Kit, whole-cell extract, […] hexose
Type in all cases: biochemical
YlHxk1 [1] = target: T1, YlHxk1 (Yarrowia lipolytica, UniProt F2Z672, E500G); settings: relative to YlHxk1, absolute Km not given; extract 30 µg/mL protein in PBS pH 7.4; host hxk1 glk1
T1 construct: gene YALI0_B22308g; full-length, 534 residues, untagged; pTEF overexpression in Y. lipolytica Po1d hxk1 glk1; whole-cell extract; gene from W29 genomic DNA
T1 sequence (F2Z672 entry or part of it E500G): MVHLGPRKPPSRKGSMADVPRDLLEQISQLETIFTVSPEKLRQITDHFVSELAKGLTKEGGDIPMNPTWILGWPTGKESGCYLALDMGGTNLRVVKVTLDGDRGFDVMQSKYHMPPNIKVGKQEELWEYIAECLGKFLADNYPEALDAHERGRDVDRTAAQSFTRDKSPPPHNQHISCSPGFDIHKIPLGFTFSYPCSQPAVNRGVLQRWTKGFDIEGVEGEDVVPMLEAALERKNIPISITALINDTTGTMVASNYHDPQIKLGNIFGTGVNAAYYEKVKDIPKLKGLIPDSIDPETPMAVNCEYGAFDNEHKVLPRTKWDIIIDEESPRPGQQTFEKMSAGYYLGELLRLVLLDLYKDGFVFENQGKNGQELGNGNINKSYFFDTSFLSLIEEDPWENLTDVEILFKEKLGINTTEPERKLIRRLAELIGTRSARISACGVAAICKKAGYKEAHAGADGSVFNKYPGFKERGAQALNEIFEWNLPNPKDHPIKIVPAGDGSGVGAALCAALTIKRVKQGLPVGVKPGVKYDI

ScHxk2 [2] = target: T2, ScHxk2 (Saccharomyces cerevisiae, UniProt P04807); settings: relative to YlHxk1, absolute Km not given; extract 30 µg/mL protein in PBS pH 7.4; host hxk1 glk1
T2 construct: gene HXK2; full-length, untagged; pTEF overexpression in Y. lipolytica Po1d hxk1 glk1; whole-cell extract
T2 sequence (P04807 2-486): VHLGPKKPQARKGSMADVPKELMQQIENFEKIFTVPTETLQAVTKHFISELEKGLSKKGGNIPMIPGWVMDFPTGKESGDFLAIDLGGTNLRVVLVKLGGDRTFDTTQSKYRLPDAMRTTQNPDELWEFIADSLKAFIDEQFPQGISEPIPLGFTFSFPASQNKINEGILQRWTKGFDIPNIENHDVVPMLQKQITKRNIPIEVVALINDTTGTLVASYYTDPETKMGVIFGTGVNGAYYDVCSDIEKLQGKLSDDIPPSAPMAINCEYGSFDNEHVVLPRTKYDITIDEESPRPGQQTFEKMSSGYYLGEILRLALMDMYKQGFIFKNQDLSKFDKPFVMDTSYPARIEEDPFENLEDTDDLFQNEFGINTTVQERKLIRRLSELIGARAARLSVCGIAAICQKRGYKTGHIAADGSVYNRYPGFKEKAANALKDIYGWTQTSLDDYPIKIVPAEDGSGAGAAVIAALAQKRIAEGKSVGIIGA

YlHxk1 [3] = target: T3, YlHxk1 (Yarrowia lipolytica, UniProt F2Z672, DEL7-15); settings: relative to YlHxk1, absolute Km not given; extract 30 µg/mL protein in PBS pH 7.4; host hxk1 glk1
T3 construct: gene YALI0_B22308g; full-length, 534 residues, untagged; pTEF overexpression in Y. lipolytica Po1d hxk1 glk1; whole-cell extract; gene from W29 genomic DNA
T3 sequence (F2Z672 entry or part of it DEL7-15): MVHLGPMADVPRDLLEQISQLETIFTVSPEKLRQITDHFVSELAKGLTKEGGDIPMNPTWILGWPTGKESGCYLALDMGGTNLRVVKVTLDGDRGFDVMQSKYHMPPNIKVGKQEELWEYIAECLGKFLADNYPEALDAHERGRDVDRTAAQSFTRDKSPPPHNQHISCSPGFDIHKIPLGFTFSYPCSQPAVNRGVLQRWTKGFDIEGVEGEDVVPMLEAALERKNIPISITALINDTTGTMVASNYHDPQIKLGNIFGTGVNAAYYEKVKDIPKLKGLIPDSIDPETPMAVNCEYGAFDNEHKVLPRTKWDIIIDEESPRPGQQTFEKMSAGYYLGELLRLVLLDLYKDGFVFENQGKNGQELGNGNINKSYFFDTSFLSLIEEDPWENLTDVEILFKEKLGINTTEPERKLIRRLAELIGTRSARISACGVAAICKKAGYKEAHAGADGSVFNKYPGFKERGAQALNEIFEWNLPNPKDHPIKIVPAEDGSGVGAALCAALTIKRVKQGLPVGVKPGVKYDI

YlHxk1 [4] = target: T4, YlHxk1 (Yarrowia lipolytica, UniProt F2Z672, DEL155-182); settings: relative to YlHxk1, absolute Km not given; extract 30 µg/mL protein in PBS pH 7.4; host hxk1 glk1
T4 construct: gene YALI0_B22308g; full-length, 534 residues, untagged; pTEF overexpression in Y. lipolytica Po1d hxk1 glk1; whole-cell extract; gene from W29 genomic DNA
T4 sequence (F2Z672 entry or part of it DEL155-182): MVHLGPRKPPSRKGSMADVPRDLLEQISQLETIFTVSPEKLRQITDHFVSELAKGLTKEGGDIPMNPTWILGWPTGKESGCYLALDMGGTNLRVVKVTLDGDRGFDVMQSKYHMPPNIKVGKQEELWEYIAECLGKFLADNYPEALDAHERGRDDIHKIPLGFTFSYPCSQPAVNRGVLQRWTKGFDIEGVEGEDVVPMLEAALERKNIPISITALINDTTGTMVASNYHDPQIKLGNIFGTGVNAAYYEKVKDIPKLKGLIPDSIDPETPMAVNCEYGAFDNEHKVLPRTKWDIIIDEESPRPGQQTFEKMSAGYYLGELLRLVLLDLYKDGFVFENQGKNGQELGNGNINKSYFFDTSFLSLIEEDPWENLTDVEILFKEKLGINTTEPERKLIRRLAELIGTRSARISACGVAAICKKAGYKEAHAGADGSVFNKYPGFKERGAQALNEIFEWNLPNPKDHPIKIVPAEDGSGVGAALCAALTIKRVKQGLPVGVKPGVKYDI

YlHxk1 [5] = target: T5, YlHxk1 (Yarrowia lipolytica, UniProt F2Z672); settings: reference enzyme of the fold scale, no absolute Km of this study printed; otherwise same
T5 construct: gene YALI0_B22308g; full-length, 534 residues, untagged; pTEF overexpression in Y. lipolytica Po1d hxk1 glk1; whole-cell extract; gene from W29 genomic DNA
T5 sequence (F2Z672 1-534): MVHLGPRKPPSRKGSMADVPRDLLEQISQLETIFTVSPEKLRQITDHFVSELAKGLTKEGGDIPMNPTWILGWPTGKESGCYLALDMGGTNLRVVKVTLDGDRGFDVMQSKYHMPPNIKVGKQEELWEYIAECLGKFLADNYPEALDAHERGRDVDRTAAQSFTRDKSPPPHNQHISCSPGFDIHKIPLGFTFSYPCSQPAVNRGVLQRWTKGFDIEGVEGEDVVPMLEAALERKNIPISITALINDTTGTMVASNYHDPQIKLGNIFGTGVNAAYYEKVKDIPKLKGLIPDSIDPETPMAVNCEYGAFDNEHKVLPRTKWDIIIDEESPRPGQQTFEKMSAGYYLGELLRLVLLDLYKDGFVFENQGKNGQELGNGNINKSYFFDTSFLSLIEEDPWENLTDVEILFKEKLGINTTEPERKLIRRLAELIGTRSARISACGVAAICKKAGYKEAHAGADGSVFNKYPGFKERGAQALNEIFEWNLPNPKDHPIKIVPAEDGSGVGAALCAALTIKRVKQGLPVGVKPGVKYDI

YlHxk1 [6] = target: T4, YlHxk1; settings: relative to YlHxk1, absolute Km not given; extract 30 µg/mL protein in PBS pH 7.4; host hxk1 glk1; remark: listed apart in the source
ScHxk2 [7] = target: T2, ScHxk2; settings: relative to YlHxk1, absolute Km not given; extract 30 µg/mL protein in PBS pH 7.4; host hxk1 glk1; remark: listed apart in the source
YlHxk1 [8] = target: T3, YlHxk1; settings: relative to YlHxk1, absolute Km not given; extract 30 µg/mL protein in PBS pH 7.4; host hxk1 glk1; remark: listed apart in the source
YlHxk1 [9] = target: T1, YlHxk1; settings: relative to YlHxk1, absolute Km not given; extract 30 µg/mL protein in PBS pH 7.4; host hxk1 glk1; remark: listed apart in the source

relative hexokinase activity at 20 mM glucose (YlHxk1 [1]) [fold vs YlHxk1]	20 mM glucose (ScHxk2 [2]) [fold vs YlHxk1]	20 mM glucose (YlHxk1 [3]) [fold vs YlHxk1]	20 mM glucose (YlHxk1 [4]) [fold vs YlHxk1]	20 mM glucose (YlHxk1 [5]) [fold vs YlHxk1]	hexokinase activity with 20 mM fructose, relative to YlHxk1 (YlHxk1 [6]) [fold vs YlHxk1]	relative hexokinase activity with 20 mM fructose (ScHxk2 [7]) [fold vs YlHxk1]	relative hexokinase activity on 20 mM fructose (YlHxk1 [8]) [fold vs YlHxk1]	relative hexokinase activity at 20 mM fructose (YlHxk1 [9]) [fold vs YlHxk1]	SMILES
2.50 ± 0.24	1.22 ± 0.16	0.18 ± 0.03	2.05 ± 0.32	1.00					OC[C@H]1OC(O)[C@H](O)[C@@H](O)[C@@H]1O (stereo partly shown) [glucose]
				1.00	2.80 ± 0.28	8.00 ± 0.76	3.98 ± 0.67	0.53 ± 0.15	OCC1(O)OC[C@@H](O)[C@@H](O)[C@@H]1O (stereo partly shown) [fructose]
